# Laboratory results taken from US12714706B2, “Methods of treating small cell lung cancer with lurbinectedin formulations” (PHARMA MAR, S.A., priority 2019, dated 2026).
# “And” between values parts separate entries of the source, which are not always exact repeats. Equal values may be shown once. Read-outs that look alike come from different tables or passages of the source.
# Legend:
# [1] = irinotecan 125 mg/m2 (Camptosar label); n=64; mean (SD); cited from earlier work
# [2] = Electrostatic charge measurements with a Faraday cage; assay type: physicochemical; settings: dry nitrogen, 95% confidence
# Procedure: This technique consists in placing the sample to be measured (q) in the interior of the inner sphere (a) and measuring the difference of potential induced between sphere (a) and another conductor of reference, sphere (b). The external sphere (c) is grounded in order to shield the system.
# Measurements were carried out under controlled atmosphere of dry nitrogen in order to avoid the effect of ambient humidity on the electrostatic charge of the samples. Samples were introduced in glass capsules using non-conductor instrumental to avoid loses of electrostatic charge. The capsules loaded with the samples were introduced in the Faraday cage through a grounded conductor tube to avoid parasitic static charges in the glass capsule. The entry and removal of the capsules was done with a computer-controlled servo engine, in order to ensure a constant rate of introduction and removal of the capsules in each measurement to minimize the creation of static charges due to friction of the insulator elements.
# Results: Several measurements with different amounts of material were carried out for each batch of each form of lurbinectedin. Before loading the capsules, they were washed and their remaining static charge was measured in order to correct the levels. Each sample was introduced and removed five times and, after each introduction, several consecutive measurements were taken in order to average any possible drift effect.
# The data was fitted by lineal regression (dashed lines in FIGS. 9a and 9b) to obtain the charge density (Q/m) as the slope of the line.
# [3] = Analytical results and impurity profile of batches of Form A and Form B of lurbinectedin; assay type: physicochemical; design: Impurity RRT approx. 1.10-1.11 / Impurity RRT approx. 1.12 / Impurity RRT approx. 1.27-1.34 / Impurity RRT approx. 1.29-1.30 / Impurity RRT approx. 1.30-1.32 / Impurity RRT approx. 1.28-1.37 / Impurity RRT approx. 2.37 / Impurity RRT approx. 2.41-2.52 / Impurity RRT approx. 2.85 / Impurity RRT approx. 0.66-0.69 / Impurity RRT approx. 0.72-0.76: unit not given here; settings: for Impurity RRT aprox 0.66-0.69 / Impurity RRT aprox 0.72-0.76 / Impurity RRT aprox 0.90-0.92: batches of Form B
# Description: Several batches of Form A of lurbinectedin were manufactured by this method.
# Several batches of Form B of lurbinectedin were manufactured by this method.
# [4] = Lurbinectedin plus irinotecan trial: pharmacokinetics of lurbinectedin, irinotecan and SN-38; settings: combination: lurbinectedin 1.0-2.4 mg/m2 + irinotecan 75 mg/m2; n=39; mean (SD)
# TG-FTIR = assay type: physicochemical
# Procedure: TG-FTIR experiments were conducted with a Thermo-Microbalance TG-209 (Netzsch) equipped with a FT-IR Spectrometer Vector 22 (Bruker) using Al crucible (open or with microhole) under N2 atmosphere with a heating range between 25 and 250° C. and a heating rate of 10° C./min.
# [5] = DVS (dynamic vapor sorption); assay type: physicochemical
# Procedure: DVS experiments were carried out with a Projekt Messtechnik SPS 11-100n multi-sample water vapor sorption analyzer. The sample was allowed to equilibrate at 50% r.h. before starting a pre-defined humidity program. The program was: • 2 h at 50% r.h. • 50 to 0% r.h. (5%/h) • 5 h at 0% r.h. • 0 to 95% r.h (5%/h) • 5 h at 95% r.h. • 95 to 50% (5%/h) • 2 h at 50% r.h.
# DSC = assay type: physicochemical
# Procedure: DSC experiments were carried out with a Perkin Elmer DSC 7 using closed Au crucibles with a heating range between −50 to 250° C. and a heating rate of 10 or 20° C./min.
# [6] = Direct dissolution of lurbinectedin at 0.5 mg/mL in 0.03 M sodium lactate buffer pH 4; assay type: physicochemical
# Description: In embodiments, the lurbinectedin to be dissolved is at least partially crystalline. The lurbinectedin to be dissolved may be in the solid state form(s) described herein.
# SCLC = test: Post-hoc exploratory analysis of response in SCLC patients who had previously received immunotherapy; assay type: in vivo, human; settings: individual SCLC patients, therapy before lurbinectedin
# Description: Post-hoc exploratory analysis was done on the response in patients who had previously received immunotherapy (n=8).
# [7] = batches of Form B of lurbinectedin, listed as 1924128-LT
# [8] = impurity profile, listed as 1924128-LT
# [9] = batches of Form A of lurbinectedin, listed as P04
# [10] = impurity profile, batches of Form A, listed as P04
# [11] = batches of Form A of lurbinectedin, listed as R05
# [12] = impurity profile, batches of Form A, listed as R05
# [13] = batches of Form B of lurbinectedin
# [14] = batches of Form B of lurbinectedin, listed as 1924129-LT
# [15] = impurity profile, listed as 1924129-LT
molecule,measurement,setting,value
"CCc1c2c(nc3ccc(OC(=O)N4CCC(N5CCCCC5)CC4)cc13)-c1cc3c(c(=O)n1C2)COC(=O)[C@]3(O)CC [irinotecan, reference compound]",HL,[1],11.7 (9) h
COc1ccc2[nH]c3c(c2c1)CCN[C@]31CS[C@@H]2c3c(OC(C)=O)c(C)c4c(c3[C@H](COC1=O)N1[C@@H]2[C@H]2c3c(cc(C)c(OC)c3O)C[C@@H]([C@@H]1O)N2C)OCO4 [Batch 1924128-LT],Average charge density (Q/m),[2]; listed as 1924128-LT,4.3 ± 0.4 nC/g
same,Dispersion of charge density (Q/m),[2]; listed as 1924128-LT,1.01 ± 0.3 nC/g
same,Total Impurities,[3]; [7],0.4 % Area
same,Water Content,[3]; [7],3.0 % w/w
same,Impurity RRT aprox 0.66-0.69,[3]; [8],0.06 % area
same,Impurity RRT aprox 0.72-0.76,[3]; [8],0.25 % area
same,Impurity RRT aprox 0.90-0.92,[3]; [8],0.07 % area
COc1ccc2[nH]c3c(c2c1)CCN[C@]31CS[C@@H]2c3c(OC(C)=O)c(C)c4c(c3[C@H](COC1=O)N1[C@@H]2[C@H]2c3c(cc(C)c(OC)c3O)C[C@@H]([C@@H]1O)N2C)OCO4 [Batch P04],Average charge density (Q/m),[2]; listed as P04,43.1 ± 3.86 nC/g
same,Dispersion of charge density (Q/m),[2]; listed as P04,7.6 ± 2.8 nC/g
same,Residual Solvents Ethyl acetate,[3]; batches of Form A of lurbinectedin,<LOQ
same,Impurities Total,[3]; [9],0.2 % Area
same,Residual Solvents Acetonitrile,[3]; [9],<LOQ
same,Residual Solvents Dichloro-methane,[3]; [9],<LOQ
same,Residual Solvents Hexane,[3]; [9],<LOQ
same,Residual Solvents Methanol,[3]; [9],1.6 % w/w
same,Residual Solvents Pentane,[3]; [9],0.5 % w/w
same,Residual Solvents Total,[3]; [9],2.1 % w/w
same,Water Content,[3]; [9],1.6 % w/w
same,Impurity RRT approx. 0.72-0.76,[3]; [10],0.09
same,Impurity RRT approx. 1.29-1.30,[3]; [10],0.10
CCc1c2c(nc3ccc(O)cc13)-c1cc3c(c(=O)n1C2)COC(=O)[C@]3(O)CC [SN-38],CL,[4],810.3 (574) L/h
same,Cmax,[4],18.1 (7.7) ug/L
same,HL,[4],18.6 (9.1) h
same,Vz,[4],18232.3 (8208.4) L
same,Cmax,[1],26.3 (11.9) ug/L
same,HL,[1],21.0 (20) h
COc1ccc2[nH]c3c(c2c1)CCN[C@]31CS[C@@H]2c3c(OC(C)=O)c(C)c4c(c3[C@H](COC1=O)N1[C@@H]2[C@H]2c3c(cc(C)c(OC)c3O)C[C@@H]([C@@H]1O)N2C)OCO4 [Form B of lurbinectedin],Degradation temperature by TG-FTIR,TG-FTIR,above 150 °C
same,Release of water by TG-FTIR,TG-FTIR,2.6%
same,Deliquescence by DVS,[5],not deliquescent
same,Hygroscopicity by DVS,[5],hygroscopic
same,DVS mass change Δm,[5]; 50 to 96% r.h.,4%
same,Temperature at which degradation begins by DSC,DSC,above 130 °C
same,Fraction of the target concentration reached,"[6]; 0.5 mg/mL in 0.03 M sodium lactate buffer pH 4, in 2 hours",60-70%
Nivolumab,Last prior therapy: TTP,SCLC; resistant disease,2.2 months and 4.1 months and 2.5 months
same,Last prior therapy: TTP,SCLC; sensitive disease,1.8 months and 1.4 months
COc1ccc2[nH]c3c(c2c1)CCN[C@]31CS[C@@H]2c3c(OC(C)=O)c(C)c4c(c3[C@H](COC1=O)N1[C@@H]2[C@H]2c3c(cc(C)c(OC)c3O)C[C@@H]([C@@H]1O)N2C)OCO4 [Batch R05],Average charge density (Q/m),[2]; listed as R05,64.02 ± 7.98 nC/g
same,Dispersion of charge density (Q/m),[2]; listed as R05,15.23 ± 5.64 nC/g
same,Impurities Total,[3]; [11],0.4 % Area
same,Residual Solvents Acetonitrile,[3]; [11],<LOQ
same,Residual Solvents Dichloro-methane,[3]; [11],<LOQ
same,Residual Solvents Hexane,[3]; [11],<LOQ
same,Residual Solvents Methanol,[3]; [11],2.2 % w/w
same,Residual Solvents Pentane,[3]; [11],0.3 % w/w
same,Residual Solvents Total,[3]; [11],2.5 % w/w
same,Water Content,[3]; [11],1.1 % w/w
same,Impurity RRT approx. 2.37,"[3]; impurity profile, batches of Form A",0.13
same,Impurity RRT approx. 0.72-0.76,[3]; [12],0.10
same,Impurity RRT approx. 1.10-1.11,[3]; [12],0.09
same,Impurity RRT approx. 1.29-1.30,[3]; [12],0.05
COc1ccc2[nH]c3c(c2c1)CCN[C@]31CS[C@@H]2c3c(OC(C)=O)c(C)c4c(c3[C@H](COC1=O)N1[C@@H]2[C@H]2c3c(cc(C)c(OC)c3O)C[C@@H]([C@@H]1O)N2C)OCO4 [Batch 1924129-LT],Average charge density (Q/m),[2]; listed as 1924129-LT,4.96 ± 2.0 nC/g
same,Dispersion of charge density (Q/m),[2]; listed as 1924129-LT,3.4 ± 1.4 nC/g
same,Residual Solvents Acetonitrile,[3]; [13],<LOQ
same,Residual Solvents CH2Cl2,[3]; [13],<LOQ
same,Residual Solvents Methanol,[3]; [13],<LOQ
same,Residual Solvents Pentane,[3]; [13],<LOQ
same,Residual Solvents Total,[3]; [13],0.0 % w/w
same,Total Impurities,[3]; [14],0.4 % Area
same,Water Content,[3]; [14],4.1 % w/w
same,Impurity RRT aprox 0.66-0.69,[3]; [15],0.07 % area
same,Impurity RRT aprox 0.72-0.76,[3]; [15],0.24 % area
same,Impurity RRT aprox 0.90-0.92,[3]; [15],0.08 % area
COc1ccc2[nH]c3c(c2c1)CCN[C@]31CS[C@@H]2c3c(OC(C)=O)c(C)c4c(c3[C@H](COC1=O)N1[C@@H]2[C@H]2c3c(cc(C)c(OC)c3O)C[C@@H]([C@@H]1O)N2C)OCO4 [Form A of lurbinectedin],Time to complete direct dissolution,[6]; 0.5 mg/mL in 0.03 M sodium lactate buffer pH 4,approximately 30 minutes
